Measurements taken from the supplement of paper PMC5908809.

How the values were obtained:
[1] = test system: SNK-6 (IL-2 2.5 ng/mL); test: percent inhibition of viability; higher = more inhibition; conditions: 72 h
[2] = test system: KHYG-1 (IL-2 2.5 ng/mL); test: as above; conditions: 72 h
[3] = test system: normal primary NK cells, pool 3 (3 donors) (IL-2 2.5 ng/mL); test: as above; conditions: 72 h
[4] = test system: IMC-1 (IL-2 20 ng/mL); test: as above; conditions: 72 h
[5] = test system: NK-92 (IL-2 2.5 ng/mL); test: as above; conditions: 72 h
[6] = test system: normal primary NK cells, pool 1 (3 donors) (IL-2 2.5 ng/mL); test: as above; conditions: 72 h
[7] = test system: NKL (IL-2 2.5 ng/mL); test: as above; conditions: 72 h
[8] = test system: normal primary NK cells, pool 1 (3 donors), resting (IL-2 0 ng/mL); test: as above; conditions: 72 h
[9] = test system: KAI3 (IL-2 2.5 ng/mL); test: as above; conditions: 72 h
[10] = test system: NK-YS (IL-2 2.5 ng/mL); test: as above; conditions: 72 h
[11] = test system: DERL-7 (IL-2 2.5 ng/mL); test: as above; conditions: 72 h
[12] = test system: normal primary NK cells, pool 2 (3 donors) (IL-2 2.5 ng/mL); test: as above; conditions: 72 h
[13] = test system: YT (IL-2 2.5 ng/mL); test: as above; conditions: 72 h
[14] = test system: normal NK cells expanded with K562-aAPC; test: as above; conditions: 72 h, IL-2 2.5 ng/mL
Protocol: (§1)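 Drug sensitivity and resistance testing on K562-aAPC-expanded normal NK cells: 5 concentrations (10-fold steps over a 10,000-fold range), 72 h at 37 °C, viability by CellTiter-Glo normalised to DMSO and benzethonium chloride controls; DSS from the fitted curve.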

[15] = test system: normal NK cells expanded with K562-aAPC; test: drug sensitivity score (DSS) (DSS units); higher = more sensitive; extreme values may be limits of the assay; conditions: 72 h; IL-2 2.5 ng/mL
Protocol: as §1

[16] = test system: SNK-6 (IL-2 2.5 ng/mL); test: as above; conditions: 72 h
[17] = test system: KHYG-1 (IL-2 2.5 ng/mL); test: as above; conditions: 72 h
[18] = test system: normal primary NK cells, pool 3 (3 donors) (IL-2 2.5 ng/mL); test: as above; conditions: 72 h
[19] = test system: IMC-1 (IL-2 20 ng/mL); test: as above; conditions: 72 h
[20] = test system: NK-92 (IL-2 2.5 ng/mL); test: as above; conditions: 72 h
[21] = test system: normal primary NK cells, pool 1 (3 donors) (IL-2 2.5 ng/mL); test: as above; conditions: 72 h
[22] = test system: NKL (IL-2 2.5 ng/mL); test: as above; conditions: 72 h
[23] = test system: normal primary NK cells, pool 1 (3 donors), resting (IL-2 0 ng/mL); test: as above; conditions: 72 h
[24] = test system: KAI3 (IL-2 2.5 ng/mL); test: as above; conditions: 72 h
[25] = test system: NK-YS (IL-2 2.5 ng/mL); test: as above; conditions: 72 h
[26] = test system: DERL-7 (IL-2 2.5 ng/mL); test: as above; conditions: 72 h
[27] = test system: normal primary NK cells, pool 2 (3 donors) (IL-2 2.5 ng/mL); test: as above; conditions: 72 h
[28] = test system: YT (IL-2 2.5 ng/mL); test: as above; conditions: 72 h

O=C(c1ccc(OCCN2CCCCC2)cc1)c1c(-c2ccc(O)cc2)sc2cc(O)ccc12 [Raloxifene] (max concentration tested 10000 nM)
percent inhibition of viability [%]
Conditions | 1 nM | 10 nM | 100 nM | 1000 nM | 10000 nM
[1] | -9.5 | -3.4 | -9.29 | -36.4 | 67.1
[2] | -4.91 | 3.37 | 0.98 | 11 | 54.9
[3] | -5.87 | -1.12 | 5.04 | 8.98 | 16.6
[4] | 0.84 | 1.43 | 3.84 | 8.59 | 10.4
[5] | 1.94 | 6.91 | -0.59 | -1.98 | 92.6
[6] | 1.01 | -6.07 | 1.09 | -7.43 | 20.9
[7] | 1.76 | 7.99 | -6.69 | 11.2 | 52.2
[8] | 2.49 | -4.47 | -6.62 | -34 | 38.5
[9] | -6.87 | -0.15 | 5.98 | 4.92 | 96.1
[10] | 0.85 | -3.33 | 4.79 | 5.35 | 40.5
[11] | -6.41 | 2.29 | 1.8 | 13.7 | 68.8
[12] | -6.02 | -3.78 | 1.06 | 2.77 | 29.1
[13] | -1.19 | 5.28 | -0.98 | 1 | 77
[14] | -3.9 | -1.26 | 0.77 | 10.2 | 53.2

Conditions | drug sensitivity score
[15] | 4.52
[16] | 2.49
[17] | 4.74
[18] | 0.74
[19] | 0
[20] | 4.99
[21] | 0.41
[22] | 4.58
[23] | 1.08
[24] | 6.04
[25] | 2.92
[26] | 6.02
[27] | 1.67
[28] | 4.39
